Test results as given in patent publication US7439359B2, “Small molecule compositions for binding to hsp90” (Sloan-Kettering Institute for Cancer Research, priority 2000, dated 2008).
pEC50, pIC50: −log10 of the molar value. Where two headings read alike, the source gives them in different places.

Columns and labels:
MCF-7 = experiment: Growth inhibition, sulforhodamine B assay; assay type: cell-based, human; settings: unit inferred
Text: (§1) Protein Assays. […] Antiproliferative index. […] Tissue Culture IC50 Studies. […] Her2 degradation. Total Protein Assays. […] Binding studies. Solid phase competition assays.

MDA-MB-468 = experiment: Growth inhibition, sulforhodamine B assay; assay type: cell-based, human; settings: for pIC50: unit inferred
Text: as §1

Hsp90 beta = molecular target: T1, Hsp90 beta (Homo sapiens, UniProt P08238); experiment: Solid phase competition assay with GM-beads, Hsp90 beta immunoblot; assay type: binding; settings: for pEC50: competition with immobilized GM, unit inferred, read-out: EC50 Hsp90 β
T1 construct: purchased Stressgen SPP-770
Procedure: (§2) A test was also designed which allows identification of compounds which interact differentially with Hsp90-alpha and Hsp90-beta. […] An Hsp90 protein preparation containing both the alpha and the beta form is incubated with the support in the presence or absence of a compound to be evaluated. […] After washing, the material bound to the support is eluted and the eluate is separated on an SDS/PAGE gel and visualized by immunoblotting with anti-Hsp90-alpha and anti-Hsp90-beta to determine the amount of material bound. Alternatively, if quantitative amounts of the Hsp90 protein preparation or known ratios of alpha to beta forms of Hsp90 are used in the first instance, the unbound material can be analyzed by a similar technique.
as §1

Hsp90alpha = Hsp90alpha (Homo sapiens, UniProt P07900); experiment: Solid phase competition assay with GM-beads, Hsp90 alpha immunoblot; assay type: binding; set-up: purchased Stressgen SPP-770; settings: for pEC50: competition with immobilized GM, unit inferred, read-out: EC50 Hsp90 α
Procedure: as §2, §1

BT-474 = experiment: Growth inhibition, sulforhodamine B assay; assay type: cell-based; settings: Homo sapiens, 72 hours, unit inferred
Text: as §1

Her2 = Her2 total protein degradation in MCF-7 cells (immunoblot);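 further: Her2 levels judged by SDS-PAGE western blot of whole-cell lysates probed with anti-Her2 antibody, compared with DMSO vehicle-treated cells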
Procedure: For assays on protein levels, cells were grown to 60-70% confluence exposed to drugs or DMSO vehicle for the indicated time periods. Lysates were prepared using 50 mM Tris pH=7.4, 2% SDS and 10% glycerol lysis buffer. Protein concentration was determined using the BCA kit (Pierce Chemical Co.), according to the manufacturers instructions. Clarified protein lysates (20-50 mg) were electrophoretically resolved on denaturing SDS-PAGE, transferred to nitrocellulose and probed with the following primary antibodies: anti-Her2 (C-18), -Her3 (C-17), -Raf-1, -cyclin D1, -Rb (C-15) (Santa Cruz), anti-hsp90, -hsp70, -ER (Stressgen), anti-Trap-1 (MSK81), anti-b-actin, -tubulin (Sigma), anti-PI3K (p85) (Upstate Biotechnologies).
After 24 hours, the cells were lysed and the amount of Her2 in the cells was evaluated.
Protein Assays. Cells were grown to 60-70% confluence and exposed to drugs or DMSO vehicle for the indicated time periods. Lysates were prepared using 50 mM Tris pH 7.4, 2% SDS and 10% glycerol lysis buffer. Protein concentration was determined using the BCA kit (Pierce Chemical Co.), according to the manufacturers instructions. Clarified protein lysates (20-50 mg) were electrophoretically resolved on denaturing SDS-PAGE, transferred to nitrocellulose and probed with the following primary antibodies: anti-Her2 (C-18), -Her3 (C-17), -Raf-1, -cyclin D1, -Rb (C-15) (Santa Cruz Biotechnology), anti-hsp90, -hsp70 (Stressgen) anti-Trap-1 (MSK81), anti-b-actin, -tubulin (Sigma), ER, anti-PI3K (p85) (Upstate Biotechnologies). […] Her2 degradation. Total Protein Assays. Cells were grown to 60-70% confluence and exposed to drugs or DMSO vehicle for the indicated time periods. Lysates were prepared using 50 mM Tris pH 7.4, 2% SDS and 10% glycerol lysis buffer. Protein concentration was determined using the BCA kit (Pierce Chemical Co.), according to the manufacturers instructions. Clarified protein lysates (20-50 μg) were electrophoretically resolved on denaturing SDS-PAGE, transferred to nitrocellulose and probed with the anti-Her2 primary antibody (C-18) (Santa Cruz Biotechnology).

[1] = Homo sapiens, MDA-MB-468, 72 hours
[2] = Homo sapiens, MCF7, read-out: IC50 Her2/MCF-7
[3] = read-out: IC50 Her2/MCF-7, Her2 total protein degradation in MCF-7, unit inferred

T1 sequence (P08238 whole entry): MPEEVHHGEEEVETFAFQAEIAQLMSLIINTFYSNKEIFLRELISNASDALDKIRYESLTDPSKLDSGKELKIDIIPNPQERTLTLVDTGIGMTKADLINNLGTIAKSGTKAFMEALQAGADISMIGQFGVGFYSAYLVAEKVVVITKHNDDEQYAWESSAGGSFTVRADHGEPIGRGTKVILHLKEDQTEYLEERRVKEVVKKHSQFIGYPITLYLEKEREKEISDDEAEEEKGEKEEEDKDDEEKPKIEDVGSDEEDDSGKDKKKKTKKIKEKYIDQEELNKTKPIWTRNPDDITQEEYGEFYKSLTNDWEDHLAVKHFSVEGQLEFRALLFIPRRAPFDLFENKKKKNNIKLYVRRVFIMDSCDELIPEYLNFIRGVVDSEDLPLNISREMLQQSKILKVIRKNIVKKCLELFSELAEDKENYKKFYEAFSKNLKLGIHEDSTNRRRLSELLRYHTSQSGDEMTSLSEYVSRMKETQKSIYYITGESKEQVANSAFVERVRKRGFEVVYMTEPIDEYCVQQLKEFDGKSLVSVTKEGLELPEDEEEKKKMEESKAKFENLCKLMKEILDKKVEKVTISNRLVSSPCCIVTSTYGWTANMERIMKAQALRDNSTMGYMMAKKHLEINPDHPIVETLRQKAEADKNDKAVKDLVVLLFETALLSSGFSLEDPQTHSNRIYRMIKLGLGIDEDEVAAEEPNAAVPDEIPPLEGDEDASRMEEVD

Structure (SMILES)	pIC50 (MCF-7; 72 hours)	pIC50 (MDA-MB-468; 72 hours)	binding to hsp 90-beta (Hsp90 beta)	binding to hsp 90-alpha (Hsp90alpha)	pEC50 (Hsp90 beta)	pIC50 (MCF-7; Homo sapiens, MCF7, 72 hours)	pIC50 (MDA-MB-468; [1])	pIC50 (BT-474)	pEC50 (Hsp90alpha)	pIC50 (Her2; [2])	IC50 MDA-468 (MDA-MB-468; 72 hours, unit not given)	pIC50 (Her2; [3])
CC=CCn1c(Cc2cc(OC)c(OC)c(OC)c2)nc2c(N)ncnc21 (mixture of isomers) [PU11]	4.29	4.18	–	–	–	–	–	–	–	–	–	–
CCCCn1c(Cc2cc(OC)c(OC)c(OC)c2)nc2c(N)nc(F)nc21 [PU3F, 2-Fluoro-9-butyl-8-(3,4,5-trimethoxy-benzyl)-9H-purin-6-ylamine]	–	–	–	–	5.46	4.62	4.52	4.54	5.22	4.60	–	–
CC/C=C\Cn1c(Cc2cc(OC)c(OC)c(OC)c2)nc2c(N)ncnc21 [PU7]	4.19	4.10	–	–	4.12	–	–	–	4.75	–	–	4.15
C=CCCn1c(Cc2cc(OC)c(OC)c(OC)c2)nc2c(N)nc(F)nc21 [PU8F, 2-Fluoro-9-but-3-enyl-8-(3,4,5-trimethoxy-benzyl)-9H-purin-6-ylamine]	–	–	–	–	5.01	4.48	4.60	4.46	5.30	4.52	–	–
C=CCCn1c(Cc2cc(OC)c(OC)c(OC)c2)nc2c(N)ncnc21 [PU8]	4.39	4.14	–	–	4.97	–	–	–	5.40	–	–	4.52
COc1cc(Cc2nc3c(N)ncnc3n2C)cc(OC)c1OC [PU13]	4.15	4.12	–	–	–	–	–	–	–	–	–	–
CCC(CC)Cn1c(Cc2cc(OC)c(OC)c(OC)c2)nc2c(N)ncnc21 [PU14]	3.80	3.89	–	–	4.28	–	–	–	4.21	–	–	< 4.00
COc1cc(Cc2nc3c(N)ncnc3n2CC2CC2)cc(OC)c1OC [PU15]	4.12	4.15	–	–	4.79	–	–	–	4.92	–	–	4.15
COc1cc(Cc2nc3c(N)nc(F)nc3n2CC2CCC2)cc(OC)c1OC [PU16F, 2-Fluoro-9-cyclobutylmethyl-8-(3,4,5-trimethoxy-benzyl)-9H-purin-6-ylamine]	–	–	–	–	5.04	4.39	4.68	4.51	4.51	4.40	–	–
COc1cc(Cc2nc3c(N)ncnc3n2CC2CCC2)cc(OC)c1OC [PU16]	4.34	4.17	–	–	4.49	–	–	–	4.77	–	–	4.22
COc1cc(Cc2nc3c(N)nc(F)nc3n2CC2CCCO2)cc(OC)c1OC (stereo not shown) [PU20F, 2-Fluoro-9-(tetrahydrofuran-2-ylmethyl)-8-(3,4,5-trimethoxy-benzyl)-9H-purin-6-ylamine]	–	–	–	–	5.17	4.64	4.68	4.60	5.64	4.70	–	–
COc1cc(Cc2nc3c(N)ncnc3n2CC2CCCO2)cc(OC)c1OC (stereo not shown) [PU20]	–	–	–	–	5.47	4.04	4.10	–	5.36	4.15	–	–
CCCCCn1c(Cc2cc(OC)c(OC)c(OC)c2)nc2c(N)nc(F)nc21 [PU21F, 2-Fluoro-9-pentyl-8-(3,4,5-trimethoxy-benzyl)-9H-purin-6-ylamine]	–	–	–	–	5.05	4.44	4.72	4.37	4.66	4.46	–	–
CC/C=C/Cn1c(Cc2cc(OC)c(OC)c(OC)c2)nc2c(N)ncnc21 [PU23]	4.33	4.26	–	–	5.02	–	–	–	4.88	–	–	4.30
C#CCCCn1c(Cc2cc(OC)c(OC)c(OC)c2)nc2c(N)ncnc21 [PU24]	–	–	–	–	5.82	4.62	4.39	–	5.59	4.70	–	–
COc1cc(Cc2nc3c(N)ncnc3n2CC(OC)OC)cc(OC)c1OC [PU25]	4.09	–	–	–	–	–	–	–	–	–	–	–
CCC(C)Cn1c(Cc2cc(OC)c(OC)c(OC)c2)nc2c(N)ncnc21 (stereo not shown) [PU26]	4.21	4.15	–	–	4.80	–	–	–	4.60	–	–	4.15
COc1cc(Cc2nc3c(N)nc(F)nc3n2CCOC(C)C)cc(OC)c1OC [PU29F, 2-Fluoro-9-(2-isopropoxy-ethyl)-8-(3,4,5-trimethoxy-benzyl)-9H-purin-6-ylamine]	–	–	–	–	5.89	4.80	4.80	–	5.70	4.82	–	–
COc1cc(Cc2nc3c(N)ncnc3n2CCOC(C)C)cc(OC)c1OC [PU29]	4.41	4.14	–	–	5.77	–	–	–	5.85	–	–	4.35
COc1cc(Cc2nc3c(N)ncnc3n2CC2(C)CC2)cc(OC)c1OC [PU30]	3.95	–	–	–	4.32	–	–	–	3.95	–	–	3.92
COc1cc(Cc2nc3c(N)ncnc3n2CC(C)C)cc(OC)c1OC [PU41]	4.01	4.15	–	–	4.69	–	–	–	4.78	–	–	4.00

Now from value to molecule:

pIC50 (MCF-7; 72 hours)	pIC50 (MDA-MB-468; 72 hours)	binding to hsp 90-beta (Hsp90 beta)	binding to hsp 90-alpha (Hsp90alpha)	pEC50 (Hsp90 beta)	pIC50 (MCF-7; Homo sapiens, MCF7, 72 hours)	pIC50 (MDA-MB-468; [1])	pIC50 (BT-474)	pEC50 (Hsp90alpha)	pIC50 (Her2; [2])	IC50 MDA-468 (MDA-MB-468; 72 hours, unit not given)	pIC50 (Her2; [3])	Structure (SMILES)
–	–	weak binding	no detectable binding	–	–	–	–	–	–	–	–	CCCCn1c(Oc2cc(OC)c(OC)c(OC)c2)nc2c(N)ncnc21 [Compound 69, 9-Butyl-8-(3,4,5-trimethoxy-phenoxy)-9H-purin-6-ylamine]
–	–	–	–	< 4.00	4.52	4.68	–	< 4.00	< 4.00	–	–	CCCCn1c(Cc2c(Br)c(OC)c(OC)c(OC)c2Br)nc2c(N)ncnc21 [PU3PhBr2, 9-butyl-8-(2,6-dibromo-3,4,5-trimethoxy-benzyl)-9H-purin-6-ylamine]
–	–	–	–	4.93	4.60	–	4.22	4.45	4.30	INSOL	–	CCCCn1c(Cc2cc(OC)c(OC)c(OC)c2Br)nc2c(N)ncnc21 [PU3PhBr, 9-butyl-8-(2-bromo-3,4,5-trimethoxy-benzyl)-9H-purin-6-ylamine]
–	–	–	–	5.34	4.72	4.44	4.52	4.73	4.60	–	–	CCCCn1c(Cc2cc(OC)c(OC)c(OC)c2Cl)nc2c(N)ncnc21 [PU3PhCl, 9-butyl-8-(2-chloro-3,4,5-trimethoxy-benzyl)-9H-purin-6-ylamine]
4.16	4.07	–	–	3.94	–	–	–	4.55	–	–	–	COc1cc(Cc2nc3c(N)ncnc3n2CCCC(C)C)cc(OC)c1OC [PU9]
–	–	–	–	4.93	4.21	4.14	–	4.65	4.30	–	–	CCCCCn1c(Cc2cc(OC)c(OC)c(OC)c2)nc2c(N)ncnc21 [PU21]
4.10	3.93	–	–	–	–	–	–	–	–	–	–	CCn1c(Cc2cc(OC)c(OC)c(OC)c2)nc2c(N)ncnc21 [PU22]
4.33	4.27	–	–	4.97	–	–	–	5.18	–	–	4.30	CCCn1c(Cc2cc(OC)c(OC)c(OC)c2)nc2c(N)ncnc21 [PU43]
4.19	4.10	–	–	4.91	–	–	–	5.39	–	–	4.07	COCCn1c(Cc2cc(OC)c(OC)c(OC)c2)nc2c(N)ncnc21 [PU44]
